Results as given in patent publication US7736638B2, “Interleukin-15 antagonist peptide” (Centro de Ingenieria Genetica y Biotecnologia, priority 2004, dated 2010).
“Also recorded” adds a separate entry of the source. Ends that are not written are not given here.

What was measured:
IL-15Rα-Fc = IL-15Rα-Fc (Homo sapiens, UniProt Q13261); assay: IL-15 peptide spot mapping on cellulose filter, binding of IL-15Rα-Fc; details: 10-mer peptides on cellulose membrane; IL-15 α-Receptor at 5 μg/mL; blue/violet color = positive; listed as 8
IL-15Rα-Fc, sequence (Q13261 with tags, fused parts or gaps limits assumed): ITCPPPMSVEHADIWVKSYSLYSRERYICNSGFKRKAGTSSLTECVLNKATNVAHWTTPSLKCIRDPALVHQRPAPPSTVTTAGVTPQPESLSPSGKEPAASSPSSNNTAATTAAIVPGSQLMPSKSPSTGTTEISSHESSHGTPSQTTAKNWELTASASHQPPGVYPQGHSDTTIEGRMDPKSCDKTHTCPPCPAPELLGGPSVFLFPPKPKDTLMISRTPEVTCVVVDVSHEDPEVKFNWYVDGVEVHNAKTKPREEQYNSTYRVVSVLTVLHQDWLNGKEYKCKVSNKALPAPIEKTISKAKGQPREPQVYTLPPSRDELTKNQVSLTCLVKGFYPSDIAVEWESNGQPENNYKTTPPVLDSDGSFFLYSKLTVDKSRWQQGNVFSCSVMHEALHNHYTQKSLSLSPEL
Experimental: To identify IL-15 regions involved in IL-15Rα binding, the peptide spot synthesis approach was used as previously described Frank et. al. The derivation of Whatman 540 paper was carried out estherifying the first anchor component, Fmoc-β-Ala-OH, using N,N′-Diisopropylcarbodiimide (DIC) and N-methylimidazole (NMI) in dry N,N-dimethylformamide (DMF). The spot array on the cellulose membrane was defined anchoring the Fmoc-β-Ala-OH on the previously marked positions, according to the required number of 10-mer peptides (22 peptides, overlapping in 5 residues, 114 amino acids of IL-15 sequence). Besides, a non-related 10 amino acids peptide was synthesized on spot 23 and also on spot 24 only Fmoc-β-Ala-OH was anchoring, both as controls. For the assembly of all these molecules, the standard Fmoc-/tBu chemistry was used. After the final cycle of synthesis, the N-terminus and side chains of all peptides were de-protected.
Cellulose sheet was soaked in ethanol to prevent possible hydrophobic interactions between the peptides on it. Ethanol was exchanged against Tris-buffer saline (TBS) (150 mM NaCl, 10 mM Tris, pH 7.6) by sequential washing. Nonspecific binding was blocked by incubating membrane overnight in 10 mL of TBS blocking buffer (5% Powdered milk in TBS). […]

[1] = test system: TNFα-induced apoptosis in L929 cells; assay: Apoptosis induction assay in L929 cells (DNA fragmentation assay); type: cell-based; details: TNFα 100 ng/mL, peptide 260 μM, 24 h
Experimental: The DNA Fragmentation Assay allows to determine the amount of DNA that is degraded upon treatment of cells with TNF-alpha. The cells' DNA is radioactively labeled by growing the cells in presence of 3H-Thymidine so that radioactive 3H-Thymidine is incorporated into the DNA. After 24 h the cells were treated with Tripsin/EDTA, washed and seeded at 5000 cells per well in a 96 well plate. Then, the labeled cells were incubated with TNFα (100 ng/mL), IL-15 (100 ng/mL), peptides (260 μM) or combinations of TNFα with different peptides.
During this incubation the added agent (e.g. TNFα induces cells to die by apoptosis and consequently the fragmentation of DNA while the DNA of untreated cells remains intact). After 24 h the cells were harvested: during harvesting, the cells were washed out of the wells of the 96 well plate with bidestilated water: the cells and organelles burst and the cell's DNA is set free. The cell fragments and DNA are passed through a filter membrane (glassfiber). Only particles of smaller than 1,5 μm can pass the filter. […] The filter membrane was dried and the amount of radioactivity (what corresponds to the amount of intact DNA) counted in a scintillation counter. The percentage of DNA fragmentation was calculated by comparing the counted radioactivity (counts per minute=cpm) of cells that were not treated with the cpm in cells that were treated with agent.

[2] = biological target: T1, IL-15Rα-Fc fusion protein (R&D 147-IR) (Homo sapiens, UniProt Q13261); assay: Colorimetric assay in Tentagel S beads, peptide binding to IL-15Rα; details: resin-bound peptide, IL-15Rα-Fc at 5 μg/mL
T1 construct: purchased R&D 147-IR
T1 sequence (Q13261 with tags, fused parts or gaps limits assumed): as above
Experimental: The resin NH2-Tentagel-S (0.24 mmol/g) was washed several times with di-chlorometane (DCM) and methanol. Then, it was incubated in a trifluoroacetic acid (TFA) solution 30% for 10 minutes; washed several times with DCM and incubated in di-isopropilethilamine (DIEA) 5% in DCM for 1 minute. This procedure activated the NH2 groups for synthesis. Later, it was washed with DCM and incubated in di-methylformamide (DMF) for 5 minutes to synthesize the peptide. The conventional Fmoc/tBu strategy of synthesis was used. Coupling reactions were followed by ninhidrine test. Once peptide Sec. No.1 sequence was completed, amino acids side chains were de-protected, leaving it anchored by its C-terminal to the resin.
Resin beads with anchored peptide were several times washed with saline solution (PBS). Non specific interactions were blocked with BSA (1%) in PBS for 1 hour at RT. Then, they were incubated with IL-15Rα-Fc fusion protein (R&D 147-IR) at 5 μg/mL in BSA (1%/PBS) for 16 hours at 4° C. Later, beads were washed in PBS three fold for 5 minutes with shaking and then incubated with anti-Fc IgG human-phosphatase conjugate diluted 1:25000 in BSA (1%/PBS) for three hours at RT. They were extensively washed with a saline solution (TBS/Tween-20, 1%) and incubated with BCIP (0.45 mg/mL) in substrate solution (100 mM Tris, pH 8.9; 100 mM NaCl; 2 mM MgCl2) for approximately 30 minutes. […]

[3] = test system: IL-15-induced proliferation of CTLL-2 cells; assay: CTLL-2 proliferation assay with human IL-15 (MTT staining); type: cell-based; details: fixed peptide concentration 260 μM
Experimental: The cytokine-dependent cell line CTLL-2 proliferates in presence of IL-15. IL-15 bound molecules impairing receptor depending signal transduction would inhibit this cell line proliferation. To evaluate the neutralizing capacity the peptide of the present invention, serial dilutions of them were done in 96 well plates (Costar, USA) in 25 μL volume of RPMI medium (Gibco) supplemented with 10% fetal bovine serum (Gibco). Previously washed CTLL-2 cells were added to 5×10^3 cells/well and it was incubated for 30 min. Then, 300 pg of IL-15 were added to each well. Plate was incubated for 72 h at 5% CO2 and 37° C. […] We also evaluated the antagonist effect of 260 μM of this peptide at different IL-15 concentrations (FIG. 3a).

recognition of the peptide spot by IL-15Rα-Fc (IL-15Rα-Fc): recognizes; also recorded: recognition
color development in beads incubated with IL-15Rα-Fc [2]: intense blue color
color development in beads incubated with IL-15Rα-Fc in presence of an excess of human IL-15 ([2]; excess of IL-15 (competition)): did not observed color
Substance: KVTAMKCFLL-NH2 [SEQ ID NO: 1]
protection from TNFα-induced apoptosis (DNA fragmentation) [1]: protected form TNF induced apoptosis
antagonist effect of the peptide at different IL-15 concentrations [3]: dependent on IL-15 doses
